Results as given in PubChem BioAssay (NCI).
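Growth conditions: 96-well plates. Treatment: test compound, 48 hours, 5 concentrations. Analysis: linear interpolation between bracketing concentrations; unreached endpoints set to highest concentration. The concentration for 50% growth inhibition is given as GI50. TGI marks complete inhibition of growth.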

Assays:
Assay in all cases: NCI-60 cell line screen, 48 h
[1] = tested on: 786-0 renal
[2] = tested on: A498 renal
[3] = tested on: A549 NSCLC
[4] = tested on: ACHN renal
[5] = tested on: BT-549 breast
[6] = tested on: CAKI-1 renal
[7] = tested on: CCRF-CEM leukemia
[8] = tested on: COLO 205 colon
[9] = tested on: DU-145 prostate
[10] = tested on: EKVX NSCLC
[11] = tested on: HCC-2998 colon
[12] = tested on: HCT-116 colon
[13] = tested on: HCT-15 colon
[14] = tested on: HL-60(TB) leukemia
[15] = tested on: HOP-62 NSCLC
[16] = tested on: HOP-92 NSCLC
[17] = tested on: HS 578T breast
[18] = tested on: HT29 colon
[19] = tested on: IGROV1 ovarian
[20] = tested on: K-562 leukemia
[21] = tested on: KM12 colon
[22] = tested on: LOX IMVI melanoma
[23] = tested on: M14 melanoma
[24] = tested on: MALME-3M melanoma
[25] = tested on: MCF7 breast
[26] = tested on: MDA-MB-231 breast
[27] = tested on: MDA-MB-435
[28] = tested on: NCI-H226 lung
[29] = tested on: NCI-H23 lung
[30] = tested on: NCI-H460 lung
[31] = tested on: NCI-H522 lung
[32] = tested on: NCI/ADR-RES ovarian
[33] = tested on: OVCAR-3 ovarian
[34] = tested on: OVCAR-5 ovarian
[35] = tested on: OVCAR-8 ovarian
[36] = tested on: PC-3 prostate
[37] = tested on: RPMI-8226 leukemia
[38] = tested on: RXF 393 renal
[39] = tested on: SF-268 CNS
[40] = tested on: SF-539 CNS
[41] = tested on: SK-MEL-2 melanoma
[42] = tested on: SK-MEL-28 melanoma
[43] = tested on: SK-MEL-5 melanoma
[44] = tested on: SK-OV-3 ovarian
[45] = tested on: SN12C renal
[46] = tested on: SNB-19 CNS
[47] = tested on: SR leukemia
[48] = tested on: SW-620 colon
[49] = tested on: T-47D breast
[50] = tested on: TK-10 renal
[51] = tested on: U251 CNS
[52] = tested on: UACC-257 melanoma
[53] = tested on: UACC-62 melanoma
[54] = tested on: UO-31 renal
[55] = tested on: MOLT-4 leukemia
[56] = tested on: OVCAR-4 ovarian
[57] = tested on: SF-295 CNS
[58] = tested on: SNB-75 CNS

## O=C1c2cc(Br)ccc2-c2ccc3c4ccc5c6c(ccc(c7ccc1c2c73)c64)C(=O)c1cc(Br)ccc1-5
[1]
  TGI: > 100 µM
[2]
  TGI: > 100 µM
[3]
  TGI: > 100 µM
[4]
  TGI: > 100 µM
[5]
  TGI: > 100 µM
[6]
  TGI: > 100 µM
[7]
  TGI: > 100 µM
[8]
  TGI: > 100 µM
[9]
  TGI: > 100 µM
[10]
  TGI: > 100 µM
[11]
  TGI: > 100 µM
[12]
  TGI: > 100 µM
[13]
  TGI: > 100 µM
[14]
  TGI: > 100 µM
[15]
  TGI: > 100 µM
[16]
  TGI: > 100 µM
[17]
  TGI: > 100 µM
[18]
  TGI: > 100 µM
[19]
  TGI: > 100 µM
[20]
  TGI: > 100 µM
[21]
  TGI: > 100 µM
[22]
  TGI: > 100 µM
[23]
  TGI: > 100 µM
[24]
  TGI: > 100 µM
[25]
  TGI: > 100 µM
[26]
  TGI: > 100 µM
[27]
  TGI: > 100 µM
[28]
  TGI: > 100 µM
[29]
  TGI: > 100 µM
[30]
  TGI: > 100 µM
[31]
  TGI: > 100 µM
[32]
  TGI: > 100 µM
[33]
  TGI: > 100 µM
[34]
  TGI: > 100 µM
[35]
  TGI: > 100 µM
[36]
  TGI: > 100 µM
[37]
  TGI: > 100 µM
[38]
  TGI: > 100 µM
[39]
  TGI: > 100 µM
[40]
  TGI: > 100 µM
[41]
  TGI: > 100 µM
[42]
  TGI: > 100 µM
[43]
  TGI: > 100 µM
[44]
  TGI: > 100 µM
[45]
  TGI: > 100 µM
[46]
  TGI: > 100 µM
[47]
  TGI: > 100 µM
[48]
  TGI: > 100 µM
[49]
  TGI: > 100 µM
[50]
  TGI: > 100 µM
[51]
  TGI: > 100 µM
[52]
  TGI: > 100 µM
[53]
  TGI: > 100 µM
[54]
  TGI: > 100 µM

## CC1=C(CCCOC(=O)[C@H](N)CC(C)C)C2=C(C)C3(CC3)[C@@](C)(O)C(=O)C2=C1
[1]
  GI50: 2.84 µM
  TGI: 11.4 µM
[2]
  GI50: 1.68 µM
  TGI: 3.66 µM
[3]
  GI50: 3.06 µM
  TGI: 30.9 µM
[5]
  GI50: 1.31 µM
  TGI: 4.48 µM
[7]
  GI50: 22.9 µM
  TGI: > 100 µM
[8]
  GI50: 1.49 µM
  TGI: 3.42 µM
[9]
  GI50: 0.392 µM
  TGI: > 100 µM
[10]
  GI50: 2.77 µM
  TGI: 8.66 µM
[11]
  GI50: 1.78 µM
  TGI: 4.49 µM
[12]
  GI50: 1.7 µM
  TGI: 5.91 µM
[13]
  GI50: 2.1 µM
  TGI: > 100 µM
[14]
  GI50: 2.01 µM
  TGI: 13.2 µM
[15]
  GI50: 1.61 µM
  TGI: 5.42 µM
[16]
  GI50: 0.759 µM
  TGI: 3.33 µM
[17]
  GI50: 5.3 µM
  TGI: 43.8 µM
[18]
  GI50: 2.22 µM
  TGI: 6.02 µM
[19]
  GI50: 0.471 µM
  TGI: 6.19 µM
[20]
  GI50: 34.3 µM
  TGI: > 100 µM
[21]
  GI50: 7.66 µM
  TGI: > 100 µM
[22]
  GI50: 2.42 µM
  TGI: 8.9 µM
[23]
  GI50: 1.67 µM
  TGI: 4.41 µM
[24]
  GI50: 1.44 µM
  TGI: 3.31 µM
[25]
  GI50: 2.73 µM
  TGI: > 87.1 µM
[26]
  GI50: 2.03 µM
  TGI: 6.42 µM
[27]
  GI50: 3.28 µM
  TGI: 27.6 µM
[55]
  GI50: 24.6 µM
  TGI: > 100 µM
[28]
  GI50: 1.89 µM
  TGI: 6.95 µM
[29]
  GI50: 0.367 µM
  TGI: 3.23 µM
[30]
  GI50: 0.375 µM
  TGI: 11.1 µM
[31]
  GI50: 2.69 µM
  TGI: 11.1 µM
[32]
  GI50: 2.14 µM
  TGI: > 38.8 µM
[33]
  GI50: 2.31 µM
  TGI: 7.6 µM
[56]
  GI50: 1.54 µM
  TGI: 21.6 µM
[34]
  GI50: 1.94 µM
  TGI: 11.8 µM
[35]
  GI50: 2.13 µM
  TGI: > 33.3 µM
[36]
  GI50: 2.43 µM
  TGI: 44.1 µM
[37]
  GI50: 21.2 µM
  TGI: 57.1 µM
[38]
  GI50: 0.492 µM
  TGI: 1.29 µM
[39]
  GI50: 0.736 µM
  TGI: > 47.2 µM
[57]
  GI50: 2.19 µM
  TGI: > 31.2 µM
[40]
  GI50: 1.61 µM
  TGI: 4.25 µM
[41]
  GI50: 1.91 µM
  TGI: 3.89 µM
[42]
  GI50: 2.11 µM
  TGI: 5.51 µM
[43]
  GI50: 1.44 µM
  TGI: 2.83 µM
[44]
  GI50: 0.752 µM
  TGI: 3.03 µM
[45]
  GI50: 2.6 µM
  TGI: > 100 µM
[46]
  GI50: 2.88 µM
  TGI: > 100 µM
[58]
  GI50: 1.34 µM
  TGI: 3.05 µM
[47]
  GI50: 12.8 µM
  TGI: > 100 µM
[48]
  GI50: 19.6 µM
  TGI: > 84 µM
[49]
  GI50: 1.84 µM
  TGI: 6.53 µM
[50]
  GI50: 2.88 µM
  TGI: 7.92 µM
[51]
  GI50: 2.53 µM
  TGI: 13.7 µM
[52]
  GI50: 2.53 µM
  TGI: 6.06 µM
[53]
  GI50: 1.75 µM
  TGI: 3.75 µM
[54]
  GI50: 1.42 µM
  TGI: 4.32 µM

## C=C1CC[C@](C)(O)[C@@]2(C)CC[C@H]3C(=C(C)C)C(=O)C[C@]3(C)C[C@H]12
[1]
  TGI: > 50 µM
[2]
  TGI: > 50 µM
[3]
  TGI: > 50 µM
[4]
  TGI: > 50 µM
[5]
  TGI: > 50 µM
[6]
  TGI: > 50 µM
[7]
  TGI: 30.9 µM
[8]
  TGI: > 50 µM
[9]
  TGI: > 50 µM
[10]
  TGI: > 50 µM
[11]
  TGI: > 50 µM
[12]
  TGI: > 50 µM
[13]
  TGI: 46.2 µM
[14]
  TGI: 18.9 µM
[15]
  TGI: > 50 µM
[16]
  TGI: > 50 µM
[17]
  TGI: > 50 µM
[18]
  TGI: > 50 µM
[19]
  TGI: > 50 µM
[20]
  TGI: 16.8 µM
[21]
  TGI: > 50 µM
[22]
  TGI: 28.4 µM
[23]
  TGI: > 50 µM
[25]
  TGI: > 50 µM
[26]
  TGI: > 50 µM
[27]
  TGI: > 50 µM
[55]
  TGI: 31.6 µM
[28]
  TGI: > 50 µM
[29]
  TGI: > 50 µM
[31]
  TGI: > 50 µM
[32]
  TGI: > 50 µM
[33]
  TGI: > 50 µM
[56]
  TGI: > 50 µM
[34]
  TGI: > 50 µM
[35]
  TGI: > 50 µM
[36]
  TGI: > 50 µM
[37]
  TGI: > 50 µM
[38]
  TGI: > 50 µM
[39]
  TGI: > 50 µM
[57]
  TGI: > 50 µM
[40]
  TGI: > 50 µM
[41]
  TGI: > 50 µM
[42]
  TGI: > 50 µM
[43]
  TGI: > 50 µM
[44]
  TGI: > 50 µM
[45]
  TGI: > 50 µM
[46]
  TGI: > 50 µM
[58]
  TGI: > 50 µM
[47]
  TGI: 41.1 µM
[48]
  TGI: > 50 µM
[49]
  TGI: > 50 µM
[50]
  TGI: > 50 µM
[51]
  TGI: > 50 µM
[52]
  TGI: > 50 µM
[53]
  TGI: > 50 µM
[54]
  TGI: > 50 µM
